Test results published in patent publication US11096985B2, “Antimicrobial peptides, their variants and uses” (priority 2015, dated 2021).
Where a SMILES comes first, the peptide text is derived from it. [ ]: non-standard residue; d: D form.

Columns and labels:
[1] = tested on: clinical strains of Enterobacter cloacae; test: MIC, clinical strains of Enterobacter cloacae; type: cell-based; set-up: unit: μg/ml; conditions: microdilution, Muller Hinton broth-cation adjusted, 0.02% BSA, 0.2% acetic acid
Procedure: (§1) Minimum inhibition concentrations (MICs) were determined against Escherichia coli (ATCC 25922), Staphylococcus aureus (ATCC 25923), Klebsiella pneumoniae (ATCC 10031) and Pseudomonas aeruginosa (ATCC 27853). Also clinical strains of E. coli, K. pneumoniae, E. cloacae, P. aeruginosa, Serratia marcescens, Proteus mirabilis, S. pneumoniae, Acinetobacter baumannii, A. johnsonii and S. aureus were used for MICs assays. Additionally, clinical strains of yeast including Candida albicans, C. glabrata, C. parapsilosis and C. quillermondiae were used. The susceptibility of these microorganisms to Chain peptides were determined using micro broth dilution assay. Colonies of the respective microorganism from Muller Hinton (MH) agar plates incubated overnight were suspended in MH broth media and final concentration of microorganism was adjusted to 5.0×10^5 cfu/ml. An aliquot of 10 μl of each Chain peptide, or gentamicin, tetracycline as reference antibiotics were added in differing concentrations along with 90 μl of bacterial suspension to 96 well polypropylene plates and incubated at 37° C. for 20 to 24 hours. Concentrations of Chain peptides and reference antibiotics ranged from 0.125 to 128 μg/ml and the MICs were recorded as the lowest concentration with no visual growth of bacteria. Similarly, antifungal MICs were tested in Potato dextrose broth.
(§2) Clinical strains of yeasts including Candida albicans, C. glabrata, C. parapsilosis and C. quillermondiae were also tested with the 12 Chain peptides. The minimum inhibitory concentration (MICs) varied between these peptides and are presented in Tables 4a, 4b, 4c and 5a, 5b, 5c. Peptides Chain 105, 201 and 308 are broad spectrum antimicrobials with MICs between 0.5-32 μg/ml against all the bacteria and yeasts tested, except Serratia marcescens and Proteus mirabilis, against which the MICs were between 64-128 μg/ml. Peptide Chain 306 has narrow spectrum activity against E.coli at 1 μg/ml and for the rest of the bacterial strains at >32 μg/ml (FIG. 10).

[2] = tested on: clinical strains of Pseudomonas aeruginosa; test: MIC, clinical strains of P. aeruginosa; type: cell-based; set-up: unit: μg/ml; conditions: microdilution, Muller Hinton broth-cation adjusted, 0.02% BSA, 0.2% acetic acid
Procedure: as §1, §2

[3] = tested on: clinical strains of C. quillermondiae; test: MIC, clinical yeast strains, C. quillermondiae; type: cell-based; conditions: C. quillermondiae clinical yeast strain 1
Method in brief: (§3)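 By broth microdilution, Chain peptides from 0.125 to 128 μg/ml were tested against clinical strains adjusted to 5.0×10^5 cfu/ml, with bacteria in MH broth and yeasts in Potato dextrose broth. After 20–24 h at 37 °C, the lowest peptide concentration without visible growth was scored as MIC.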

[4] = tested on: clinical strains of Staphylococcus aureus; test: MIC, clinical strains of S. aureus; type: cell-based; set-up: unit: μg/ml; conditions: microdilution, Muller Hinton broth-cation adjusted, 0.02% BSA, 0.2% acetic acid
Procedure: as §1, §2

[5] = tested on: clinical strains of Candida albicans; test: MIC, clinical yeast strains, Candida albicans; type: cell-based; set-up: unit: μg/ml
Method in brief: as §3

[6] = tested on: clinical strains of Streptococcus pneumoniae; test: MIC, clinical strains of Streptococcus pneumoniae; type: cell-based; set-up: unit: µg/mL; conditions: microdilution, Muller Hinton broth-cation adjusted, 0.02% BSA, 0.2% acetic acid
Procedure: as §1, §2

[7] = tested on: clinical strains of C. parapsilosis; test: MIC, clinical yeast strains, C. parapsilosis; type: cell-based, Candida parapsilosis; set-up: unit: μg/ml
Method in brief: as §3

[8] = tested on: clinical strains of C. glabrata; test: MIC, clinical yeast strains, C. glabrata; type: cell-based, Candida glabrata; set-up: unit: μg/ml
Method in brief: as §3

[9] = tested on: clinical strains of Klebsiella pneumoniae; test: MIC, clinical strains of K. pneumoniae; type: cell-based; set-up: unit: μg/ml; conditions: microdilution, Muller Hinton broth-cation adjusted, 0.02% BSA, 0.2% acetic acid
Procedure: as §1, §2

[10] = tested on: clinical strains of Proteus mirabilis; test: MIC, clinical strains of Proteus mirabilis; type: cell-based; set-up: unit: µg/mL; conditions: microdilution, Muller Hinton broth-cation adjusted, 0.02% BSA, 0.2% acetic acid
Procedure: as §1, §2

[11] = tested on: clinical strains of Serratia marcescens; test: MIC, clinical strains of Serratia marcescens; type: cell-based; set-up: unit: µg/mL; conditions: microdilution, Muller Hinton broth-cation adjusted, 0.02% BSA, 0.2% acetic acid
Procedure: as §1, §2

[12] = tested on: clinical strains of Escherichia coli; test: MIC, clinical strains of E. coli; type: cell-based; set-up: unit: μg/ml; conditions: microdilution, Muller Hinton broth-cation adjusted, 0.02% BSA, 0.2% acetic acid
Procedure: as §1, §2

In the case of `CC(C)C[C@@H](NC(=O)[C@H](N)CCCNC(=N)N)C(=O)N[C@H](CCCCN)C(=O)N[C@H](Cc1c[nH]c2ccccc12)C(=O)N[C@H](Cc1ccccc1)C(=O)N[C@H](Cc1c[nH]c2ccccc12)C(=O)N[C@H](CC(C)C)C(=O)N[C@H](Cc1ccccc1)C(=O)N[C@H](CCCNC(=N)N)C(=O)N[C@H](CCCCN)C(=O)N[C@H](CCCNC(=N)N)C(=O)O` [Chain307D] (H-[dR][dL][dK][dW][dF][dW][dL][dF][dR][dK][dR]-OH), the Minimum inhibitory concentration ([1]; Enterobacter cloacae clinical strain 1) is reported as 4, the Minimum inhibitory concentration ([1]; Enterobacter cloacae clinical strain 2) is reported as 8 and the Minimum inhibitory concentration ([1]; Enterobacter cloacae clinical strain 3) is reported as 4. For the same compound, the Minimum inhibitory concentration ([1]; Enterobacter cloacae clinical strain 4) was 4, the Minimum inhibitory concentration ([1]; Enterobacter cloacae clinical strain 5) was 4 and the Minimum inhibitory concentration ([2]; Pseudomonas aeruginosa clinical strain 1) was 16. It also gave a Minimum inhibitory concentration ([2]; Pseudomonas aeruginosa clinical strain 2) of 16, a Minimum inhibitory concentration ([2]; Pseudomonas aeruginosa clinical strain 3) of 16 and a Minimum inhibitory concentration ([2]; Pseudomonas aeruginosa clinical strain 4) of 8. It also gave a Minimum inhibitory concentration ([2]; Pseudomonas aeruginosa clinical strain 5) of 8, a Minimum inhibitory concentration [3] of 4 and a Minimum inhibitory concentration ([4]; Staphylococcus aureus clinical strain 1) of 2. The Minimum inhibitory concentration ([4]; Staphylococcus aureus clinical strain 2) was 2, the Minimum inhibitory concentration ([4]; Staphylococcus aureus clinical strain 3) was 2 and the Minimum inhibitory concentration ([4]; Staphylococcus aureus clinical strain 4) was 2. The Minimum inhibitory concentration ([4]; Staphylococcus aureus clinical strain 5) was 2, the Minimum inhibitory concentration ([5]; Candida albicans clinical yeast strain 1) was 16 and the Minimum inhibitory concentration ([5]; Candida albicans clinical yeast strain 2) was 16. The Minimum inhibitory concentration ([5]; Candida albicans clinical yeast strain 3) was 16, the Minimum inhibitory concentration ([5]; Candida albicans clinical yeast strain 4) was 16 and the Minimum inhibitory concentration ([5]; Candida albicans clinical yeast strain 5) was 16. It also gave a Minimum inhibitory concentration ([6]; Streptococcus pneumoniae clinical strain 1) of 4, a Minimum inhibitory concentration ([6]; Streptococcus pneumoniae clinical strain 2) of 4 and a Minimum inhibitory concentration ([6]; Streptococcus pneumoniae clinical strain 3) of 4. For the same compound, the Minimum inhibitory concentration ([6]; Streptococcus pneumoniae clinical strain 4) was 2, the Minimum inhibitory concentration ([6]; Streptococcus pneumoniae clinical strain 5) was 2 and the Minimum inhibitory concentration ([7]; C. parapsilosis clinical yeast strain 1) was 16. The Minimum inhibitory concentration ([7]; C. parapsilosis clinical yeast strain 2) was 8, the Minimum inhibitory concentration ([7]; C. parapsilosis clinical yeast strain 3) was 8 and the Minimum inhibitory concentration ([7]; C. parapsilosis clinical yeast strain 4) was 8. For the same compound, the Minimum inhibitory concentration ([8]; C. glabrata clinical yeast strain 1) was 8, the Minimum inhibitory concentration ([8]; C. glabrata clinical yeast strain 2) was 16 and the Minimum inhibitory concentration ([8]; C. glabrata clinical yeast strain 3) was 8. For the same compound, the Minimum inhibitory concentration ([8]; C. glabrata clinical yeast strain 4) was 16, the Minimum inhibitory concentration ([9]; Klebsiella pneumoniae clinical strain 1) was 8 and the Minimum inhibitory concentration ([9]; Klebsiella pneumoniae clinical strain 2) was 8. The Minimum inhibitory concentration ([9]; Klebsiella pneumoniae clinical strain 3) was 16, the Minimum inhibitory concentration ([9]; Klebsiella pneumoniae clinical strain 4) was 16 and the Minimum inhibitory concentration ([9]; Klebsiella pneumoniae clinical strain 5) was 4. For the same compound, the Minimum inhibitory concentration ([10]; Proteus mirabilis clinical strain 1) was >128, the Minimum inhibitory concentration ([10]; Proteus mirabilis clinical strain 2) was 128 and the Minimum inhibitory concentration ([10]; Proteus mirabilis clinical strain 3) was 128. For the same compound, the Minimum inhibitory concentration ([10]; Proteus mirabilis clinical strain 4) was >128, the Minimum inhibitory concentration ([10]; Proteus mirabilis clinical strain 5) was >128 and the Minimum inhibitory concentration ([11]; Serratia marcescens clinical strain 1) was >128. For the same compound, the Minimum inhibitory concentration ([11]; Serratia marcescens clinical strain 2) was >128, the Minimum inhibitory concentration ([11]; Serratia marcescens clinical strain 3) was 128 and the Minimum inhibitory concentration ([11]; Serratia marcescens clinical strain 4) was >128. The Minimum inhibitory concentration ([11]; Serratia marcescens clinical strain 5) was >128, the Minimum inhibitory concentration ([12]; Escherichia coli clinical strain 1) was 4 and the Minimum inhibitory concentration ([12]; Escherichia coli clinical strain 2) was 4. For the same compound, the Minimum inhibitory concentration ([12]; Escherichia coli clinical strain 3) was 4, the Minimum inhibitory concentration ([12]; Escherichia coli clinical strain 4) was 2 and the Minimum inhibitory concentration ([12]; Escherichia coli clinical strain 5) was 4.
